Legend:
[1] = target: T1, glutathione-S-transferase (GST) tagged LXRalpha LBD (ligand binding domain) (Homo sapiens, UniProt Q13133); assay: LanthaScreen TR-FRET Liver X Receptor Coactivator Assay, LXR alpha-LBD; format: biochemical; settings: for Emax: efficacy in relation to reference dual agonist T1317, read-out: LXR alpha activity at max dose (%) (Emax); for EC50: potency (Inflection Point) of co-activator recruitment, TR-FRET, read-out: LXR alpha IP
T1 construct: purchased Invitrogen pv4655
T1 sequence (Q13133 209-447 limits assumed): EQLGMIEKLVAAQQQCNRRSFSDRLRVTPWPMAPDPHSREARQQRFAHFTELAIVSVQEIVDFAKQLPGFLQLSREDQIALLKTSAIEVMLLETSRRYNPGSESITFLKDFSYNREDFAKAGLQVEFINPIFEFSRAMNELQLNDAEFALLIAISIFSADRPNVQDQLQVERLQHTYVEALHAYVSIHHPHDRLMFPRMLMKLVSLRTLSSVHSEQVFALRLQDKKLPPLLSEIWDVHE
How it was run: (§1)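 TR-FRET coactivator recruitment read-out: compounds first received either LBD, followed by a mix of terbium-labelled anti-GST antibody and fluorescein coactivator peptide. Signal measured by time-resolved FRET once plates had incubated at room temperature.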

[2] = target: T2, glutathione-S-transferase (GST) tagged LXRbeta LBD (ligand binding domain) (Homo sapiens, UniProt P55055); assay: LanthaScreen TR-FRET Liver X Receptor Coactivator Assay, LXR beta-LBD; format: biochemical; settings: for Emax: efficacy in relation to reference dual agonist T1317, read-out: LXR beta activity at max dose (%) (Emax); for EC50: potency (Inflection Point) of co-activator recruitment, TR-FRET, read-out: LXR beta IP
T2 construct: purchased Invitrogen pv4658.pps
T2 sequence (P55055 222-460 limits assumed): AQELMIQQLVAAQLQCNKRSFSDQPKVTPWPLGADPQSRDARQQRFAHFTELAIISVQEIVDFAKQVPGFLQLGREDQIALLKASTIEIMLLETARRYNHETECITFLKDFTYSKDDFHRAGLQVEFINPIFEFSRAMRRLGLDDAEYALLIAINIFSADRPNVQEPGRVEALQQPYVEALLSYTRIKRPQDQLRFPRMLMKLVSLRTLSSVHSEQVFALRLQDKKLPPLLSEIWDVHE
How it was run: as §1

| Compound | Emax [1] [%] | EC50 [1] [nM] | Emax [2] [%] | EC50 [2] [nM] |
| --- | --- | --- | --- | --- |
| CNC(=O)c1ccc(-c2cnc(N3CCN(C(=O)C(C)(C)C)CC3)c(C#N)c2)cc1Cl [Example 6-2, 2-chloro-4-{5-cyano-6-[4-(2,2-dimethylpropanoyl)piperazin-1-yl]pyridin-3-yl}-N-methylbenzamide] | 34 | 11300 | 98 | 329 |
| CN(CCn1cncn1)C(=O)c1ccc(-c2cnc(N3CCN(C(=O)C(C)(C)c4ccccc4)CC3)c(C#N)c2)cc1Cl [Example 6-3, 2-chloro-4-{5-cyano-6-[4-(2-methyl-2-phenylpropanoyl)piperazin-1-yl]pyridin-3-yl}-N-methyl-N-[2-(1H-1,2,4-triazol-1-yl)ethyl]benzamide] | 33 | 2420 | 113 | 30 |
| CN(C)C(=O)c1c(Cl)cc(-c2cnc(N3CCN(C(=O)[C@](O)(c4ccccc4)C(F)(F)F)CC3)c(C#N)c2)cc1Cl [Example 7-1, 2,6-dichloro-4-(5-cyano-6-{4-[(2R)-3,3,3-trifluoro-2-hydroxy-2-phenylpropanoyl]piperazin-1-yl}pyridin-3-yl)-N,N-dimethylbenzamide] | 53 | 186 | 73 | 3 |
| CC(C)C(=O)C(=O)N1CCN(c2ncc(-c3cc(Cl)c(C(=O)N(C)C)c(Cl)c3)cc2C#N)CC1 [Example 7-2, 2,6-dichloro-4-{5-cyano-6-[4-(3-methyl-2-oxobutanoyl)piperazin-1-yl]pyridin-3-yl}1-N,N-dimethylbenzamide] | 30 | 2040 | 88 | 32 |
| CN(C)C(=O)c1c(Cl)cc(-c2cnc(N3CC4CCC(C3)N4C(=O)OC(C)(C)C)c(C#N)c2)cc1Cl [Example 7-3, tert-butyl 3-(3-cyano-5-(3,5-dichloro-4-(dimethylcarbamoyl)phenyl)pyridin-2-yl)-3,8-diazabicyclo[3.2.1]octane-8-carboxylate] | 21 | 151 | 67 | 13 |
| CN(C)C(=O)c1c(Cl)cc(-c2cnc(N3CC4CCC3CN4C(=O)OC(C)(C)C)c(C#N)c2)cc1Cl (centres unmarked) [Example 7-4, tert-butyl 5-(3-cyano-5-(3,5-dichloro-4-(dimethylcarbamoyl)phenyl)pyridin-2-yl)-2,5-diazabicyclo[2.2.2]octane-2-carboxylate] | 11 | 671 | 62 | 49 |
| CN(C)C(=O)c1ccc(-c2ccc(N3CCCN(C(=O)OC(C)(C)C)CC3)cc2)cc1Cl [Example 8-1, tert-butyl 4-[3′-chloro-4′-(dimethylcarbamoyl)biphenyl-4-yl]-1,4-diazepane-1-carboxylate] | 55 | 936 | 86 | 63 |
| COc1cc(-c2cnc(N3CCN(C(=O)OC(C)(C)C)CC3)c(C#N)c2)ccc1C(=O)N(C)C [Example 8-2, tert-butyl 4-{3-cyano-5-[4-(dimethylcarbamoyl)-3-methoxyphenyl]pyridin-2-yl}piperazine-1-carboxylate] | 28 | 25800 | 73 | 846 |
| CN(C)C(=O)c1ccc(-c2ccc(N3CC4CCC(C3)N4C(=O)OC(C)(C)C)cc2)cc1Cl [Example 8-3, tert-butyl 3-[3′-chloro-4′-(dimethylcarbamoyl)biphenyl-4-yl]-3,8-diazabicyclo[3.2.1]octane-8-carboxylate] | 64 | 11700 | 87 | 189 |
| CN(C)C(=O)c1ccc(-c2ccc(N3CC4CCC3CN4C(=O)OC(C)(C)C)cc2)cc1Cl (centres unmarked) [Example 8-4, tert-butyl 5-[3′-chloro-4′-(dimethylcarbamoyl)biphenyl-4-yl]-2,5-diazabicyclo[2.2.2]octane-2-carboxylate] | 73 | 1500 | 78 | 32 |
| CN(C)C(=O)c1ccc(-c2cnc(N3CC4CC3CN4C(=O)OC(C)(C)C)c(C#N)c2)cc1Cl (centres unmarked) [Example 8-5, tert-butyl 5-{5-[3-chloro-4-(dimethylcarbamoyl)phenyl]-3-cyanopyridin-2-yl}-2,5-diazabicyclo[2.2.1]heptane-2-carboxylate] | 37 | 16800 | 53 | 252 |
| CC1CN(c2ncc(-c3ccc(C(=O)N(C)C)c(Cl)c3)cc2C#N)CCN1C(=O)OC(C)(C)C (centres unmarked) [Example 8-6, tert-butyl 4-{5-[3-chloro-4-(dimethylcarbamoyl)phenyl]-3-cyanopyridin-2-yl}-2-methylpiperazine-1-carboxylate] | 68 | 12700 | 78 | 57 |
| CN(C)C(=O)c1ccc(-c2cnc(N3CC4CCC(C3)N4C(=O)OC(C)(C)C)c(C#N)c2)cc1Cl [Example 8-7, tert-butyl 3-{5-[3-chloro-4-(dimethylcarbamoyl)phenyl]-3-cyanopyridin-2-yl}-3,8-diazabicyclo[3.2.1]octane-8-carboxylate] | 52 | 1640 | 71 | 31 |
| CN(C)C(=O)c1ccc(-c2cnc(N3CC4CCC3CN4C(=O)OC(C)(C)C)c(C#N)c2)cc1Cl (centres unmarked) [Example 8-8, tert-butyl 5-{5-[3-chloro-4-(dimethylcarbamoyl)phenyl]-3-cyanopyridin-2-yl}-2,5-diazabicyclo[2.2.2]octane-2-carboxylate] | 38 | 882 | 68 | 64 |
| CN(C)C(=O)c1ccc(-c2cnc(N3CCN(C(=O)OC(C)(C)C)CC3)c(C#N)c2)cc1C(F)(F)F [Example 8-9, tert-butyl 4-{3-cyano-5-[4-(dimethylcarbamoyl)-3-(trifluoromethyl)phenyl]pyridin-2-yl}piperazine-1-carboxylate] | 30 | 10800 | 73 | 1660 |
| CN(C)C(=O)c1ccc(-c2ccc(N3CC4CCC(C3)N4C(=O)OC(C)(C)C)c(Cl)c2)cc1Cl [Example 8-10, tert-butyl 3-[3,3′-dichloro-4′-(dimethylcarbamoyl)biphenyl-4-yl]-3,8-diazabicyclo[3.2.1]octane-8-carboxylate] | 64 | 660 | 63 | 70 |
| CN(C)C(=O)c1ccc(-c2cnc(N3C4CCC3C3CCC4N3C(=O)OC(C)(C)C)c(C#N)c2)cc1Cl [Example 8-11, tert-butyl 10-{5-[3-chloro-4-(dimethylcarbamoyl)phenyl]-3-cyanopyridin-2-yl}-9,10-diazatricyclo[4.2.1.1~2,5~]decane-9-carboxylate] | 41 | 10900 | 57 | 1050 |
| CN(C)C(=O)c1ccc(-c2cnc(N3CCN(C(=O)OC(C)(C)C)C(c4ccccc4)C3)c(C#N)c2)cc1Cl (centres unmarked) [Example 8-12, tert-butyl 4-{5-[3-chloro-4-(dimethylcarbamoyl)phenyl]-3-cyanopyridin-2-yl}-2-phenylpiperazine-1-carboxylate] | 40 | 954 | 70 | 6 |
| CN(C)C(=O)c1ccc(-c2cnc(N3CCN(C(=O)OC(C)(C)C)CC3Cc3ccccc3)c(C#N)c2)cc1Cl (centres unmarked) [Example 8-13, tert-butyl 3-benzyl-4-{5-[3-chloro-4-(dimethylcarbamoyl)phenyl]-3-cyanopyridin-2-yl}piperazine-1-carboxylate] | 78 | 538 | 120 | 18 |
| CN(C)C(=O)c1ccc(-c2ccc(N3CC4CCC(C3)N4S(=O)(=O)c3c(Cl)cccc3Cl)cc2)cc1Cl [Example 8-14, 3-chloro-4′-{8-[(2,6-dichlorophenyl)sulfonyl]-3,8-diazabicyclo[3.2.1]oct-3-yl}-N,N-dimethylbiphenyl-4-carboxamide] | 37 | 3470 | 118 | 76 |
| CN(C)C(=O)c1ccc(-c2ccc(N3CCN(C(=O)OC(C)(C)C)CC3)c(C#N)c2)cc1Cl [Example 8-15, tert-butyl 4-[3′-chloro-3-cyano-4′-(dimethylcarbamoyl)biphenyl-4-yl]piperazine-1-carboxylate] | 54 | 3890 | 81 | 177 |
| CN(C)C(=O)c1ccc(-c2ccc(N3CC4CCC(C3)N4S(=O)(=O)c3c(Cl)cccc3Cl)c(Cl)c2)cc1Cl [Example 8-16, 3,3′-dichloro-4′-{8-[(2,6-dichlorophenyl)sulfonyl]-3,8-diazabicyclo[3.2.1]oct-3-yl}-N,N-dimethylbiphenyl-4-carboxamide] | 79 | 569 | 82 | 37 |
| CCc1cc(-c2cnc(N3CCN(C(=O)OC(C)(C)C)CC3)c(C#N)c2)ccc1C(=O)N(C)C [Example 8-17, tert-butyl 4-{3-cyano-5-[4-(dimethylcarbamoyl)-3-ethylphenyl]pyridin-2-yl}piperazine-1-carboxylate] | 41 | 7470 | 71 | 424 |
